The text below walks through data of PubChem BioAssay AID1919005 (Molecular Pharmacology Branch, DTP, NCI, 2023).

As usually defined, the IC50 is the point on the concentration scale where inhibition reaches its midpoint. One may read the viability, T/C as the ratio of treated to control.

Values joined by “and” are separate entries in the source; they are usually repeats but may differ in a detail not shown here. Equal entries are not always repeated. Some results are limits rather than exact numbers.

The subject of the test is 855422-203-R-J1-PDC complex spheroid growth. Description: Anticancer human tumor 855422-203-R-J1-PDC patient-derived bladder carcinoma cell line growth inhibition [AhR]. The settings on record: for viability, T/C: stronger effect = lower value. An excerpt: Multicellular complex tumor spheroid response to aryl hydrocarbon receptor antagonists in combination with a variety of drugs and investigational agents in selected tumor cell lines
The current study was undertaken to assess response to aryl hydrocarbon receptor antagonists in combination with standard-of-care drugs and investigational agents in solid tumor complex spheroid models. Complex spheroids include a stromal component modeled by human endothelial cells (HUVEC) and fibroblasts modeled by human mesenchymal stem cells (MSCs). The concentration ranges selected for each drug and investigational agent were based upon clinically achievable concentrations if the clinical Cmax of the agent was known.
Compounds. The drugs and investigational agents: BAY 2416964 (NSC825713), GNF351 (NSC835774), CH-223191 (NSC835775), CPI-455 (NSC825282), aza-TdCyd (NSC777586), decitabine (NSC127716), belinostat (NSC758774), entinostat (NSC756642), pevonedistat (NSC761192), tazemetostat (NSC777109), talazoparib (NSC765396), olaparib (NSC753686), selinexor (NSC780203), nedisertib (M3814, NSC802822), bortezomib (NSC756655), venetoclax (NSC766270), doxorubicin (NSC123127), elimusertib (BAY189344, NSC800525), ceralasertib (AZD6738, NSC777638), TAK-243 (NSC785004), alisertib (NSC759677), etoposide (NSC141540), topotecan (NSC609699), eribulin (NSC707389), gemcitabine (NSC613327), carboplatin (NSC241240), cisplatin (NSC119875), and SN-38 (NSC673596) were obtained from the National Cancer Institute (NCI) Developmental Therapeutics Program Chemical Repository (32). The FDA-approved anticancer drug set is available from the Developmental Therapeutics Program at https://dtp.cancer.gov/organization/dscb/obtaining/available plates.htm. […] The stock solutions were prepared in dimethyl sulfoxide (DMSO, Sigma-Aldrich, St. Louis, MO, cat. D2650), except for the platinum compounds which were prepared in saline (Quality Biological, Gaithersburg, MD, cat. 114-055-101), at 800-fold the tested concentration and stored at -70 degrees C prior to their use. All drugs and investigational agents were tested over a range starting from a high concentration at or near the clinical Cmax and decreasing in half-log increments. If the clinical Cmax for an agent had not been determined, the highest concentration tested was 10 microM (Table 1).
Cell Culture. All cells were maintained in an incubator at 37 degrees C and 5% CO2 with 95% humidity. The PDC lines were cultured according to standard operating procedures established by the NCI PDMR (https://pdmr.cancer.gov). Briefly, all PDCs were thawed and cultured in Matrigel-coated flasks prepared with a working solution of 1X Ham's F-12 nutrient mix, without supplementation (Invitrogen, Waltham, MA, cat. 11765054), 100 U/mL penicillin-streptomycin (Invitrogen, cat. 15140122), and 2.5% Matrigel (Corning Inc., Corning, NY, cat. 354248) for the first three passages. All PDCs were cultured in complete DMEM/F-12 media containing advanced DMEM/F-12 (Invitrogen, cat. 12634028), 4.9% defined fetal bovine serum, heat inactivated (HyClone Laboratories Inc., Logan, UT, cat. SH30070.03HI), 389 ng/mL hydrocortisone (Sigma-Aldrich, cat. H4001), 9.7 ng/mL human EGF recombinant protein (Invitrogen, cat. PHG0313), 23.4 microg/mL adenine (Sigma-Aldrich, cat. A2786), 97.3 U/mL penicillin-streptomycin (Invitrogen, cat. 15140122), 1.9 mM L-glutamine (Invitrogen, cat. 25030081), and 9.7 microM Y-27632 dihydrochloride (Tocris Bioscience, Bristol, United Kingdom, cat. 1254). The PDCs were cultured in complete DMEM/F12 media without 10 microM Y-27632 dihydrochloride for at least two passages prior to the screen. The established cell lines NCI-H1341 and […] were cultured in DMEM/F-12, HEPES (Invitrogen, cat. 11330032), 5% defined fetal bovine serum (HyClone Laboratories Inc., cat. SH30070.03), ITS premix universal culture supplement [insulin (5 microg/mL), transferrin (5 microg/mL), and selenious acid (5 ng/mL)] […]

Where [1] appears, read: curve of first compound, second compound 0.1 µM.
The mark [2] stands for this setting: curve of first compound, second compound 0.316 µM.
Where [3] appears, read: curve of first compound, second compound 1 µM.
The mark [4] stands for this setting: curve of first compound, second compound 3.16 µM.
The mark [5] stands for this setting: curve of first compound, second compound 10 µM.
Where [6] appears, read: second compound 0.1 µM, first compound 0.0316 µM.
[7] abbreviates: second compound 0.1 µM, first compound 0.1 µM.
The mark [8] stands for this setting: second compound 0.1 µM, first compound 0.316 µM.
[9] abbreviates: second compound 0.1 µM, first compound 1 µM.
Where [10] appears, read: second compound 0.1 µM, first compound 3.16 µM.
Setting [11] is: second compound 0.1 µM, first compound 10 µM.
[12] abbreviates: second compound 0.316 µM, first compound 0.0316 µM.
The mark [13] stands for this setting: second compound 0.316 µM, first compound 0.1 µM.
Where [14] appears, read: second compound 0.316 µM, first compound 0.316 µM.
Setting [15] is: second compound 0.316 µM, first compound 1 µM.
Setting [16] is: second compound 0.316 µM, first compound 3.16 µM.
Setting [17] is: second compound 0.316 µM, first compound 10 µM.
Where [18] appears, read: second compound 1 µM, first compound 0.0316 µM.
The mark [19] stands for this setting: second compound 1 µM, first compound 0.1 µM.
Setting [20] is: second compound 1 µM, first compound 0.316 µM.
[21] abbreviates: second compound 1 µM, first compound 1 µM.
The mark [22] stands for this setting: second compound 1 µM, first compound 3.16 µM.
The mark [23] stands for this setting: second compound 1 µM, first compound 10 µM.
Setting [24] is: second compound 3.16 µM, first compound 0.0316 µM.
Setting [25] is: second compound 3.16 µM, first compound 0.1 µM.
[26] abbreviates: second compound 3.16 µM, first compound 0.316 µM.
Setting [27] is: second compound 3.16 µM, first compound 1 µM.
Setting [28] is: second compound 3.16 µM, first compound 3.16 µM.
Where [29] appears, read: second compound 3.16 µM, first compound 10 µM.
[30] abbreviates: second compound 10 µM, first compound 0.0316 µM.
Setting [31] is: second compound 10 µM, first compound 0.1 µM.
[32] abbreviates: second compound 10 µM, first compound 0.316 µM.
Setting [33] is: second compound 10 µM, first compound 1 µM.
Where [34] appears, read: second compound 10 µM, first compound 3.16 µM.
The mark [35] stands for this setting: second compound 10 µM, first compound 10 µM.
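Also: spheroids exposed to agents for seven days before readout.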
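For viability, T/C in this document: percent of DMSO vehicle control luminescence viability.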

Turning to `NS(=O)(=O)OCC1CC(n2ccc3c(NC4CCc5ccccc54)ncnc32)CC1O` (stereo not drawn) + Cc1cncc(-c2nc(NCCc3c[nH]c4ccccc34)c3ncn(C(C)C)c3n2)c1, the 50% inhibitory concentration (IC50) was 860 nM under setting [1]; 647 nM under setting [2]; 499 nM under setting [3]; 216 nM under setting [4]; below 31.6 nM under setting [5]. The viability, T/C runs as follows: under setting [6], 114%; under setting [7], 119%; under setting [8], 78.2%; under setting [9], 50.4%; under setting [10], 12.8%; under setting [11], 10.9%. Moreover, the viability, T/C is, setting by setting: under setting [12], 96.5%; under setting [13], 113%; under setting [14], 52.1%; under setting [15], 50.9%; under setting [16], 10.8%; under setting [17], 9.91%. The viability, T/C reads like this: under setting [18], 98.3%; under setting [19], 106%; under setting [20], 50.7%; under setting [21], 40.3%; under setting [22], 11.7%; under setting [23], 9.3%. Further, the viability, T/C runs as follows: under setting [24], 80.2%; under setting [25], 75.9%; under setting [26], 37.1%; under setting [27], 12.5%; under setting [28], 8.33%; under setting [29], 8.5%. Moreover, the viability, T/C runs as follows: under setting [30], 9.89%; under setting [31], 4.7%; under setting [32], 3.03%; under setting [33], 0.63%; under setting [34], 1.67%; under setting [35], 1.45%.
Turning to `CC(C)c1c(-c2ccccc2)nc2c(C#N)c[nH]n2c1=O` + Cc1cncc(-c2nc(NCCc3c[nH]c4ccccc34)c3ncn(C(C)C)c3n2)c1, the IC50 by setting is: under setting [1], above 10000 nM; under setting [2], above 10000 nM; under setting [3], above 10000 nM; under setting [4], above 10000 nM; under setting [5], below 31.6 nM. The viability, T/C is, setting by setting: under setting [6], 112%; under setting [7], 91.1%; under setting [8], 104%; under setting [9], 95.9%; under setting [10], 94.2%; under setting [11], 78.8%. In addition, the viability, T/C by setting is: under setting [12], 90.1%; under setting [13], 97.2%; under setting [14], 83.8%; under setting [15], 82.5%; under setting [16], 75.4%; under setting [17], 78.1%. Moreover, the viability, T/C reads like this: under setting [18], 82.7%; under setting [19], 92.1%; under setting [20], 90%; under setting [21], 74.3%; under setting [22], 76.4%; under setting [23], 72.1%. The viability, T/C by setting is: under setting [24], 78.6%; under setting [25], 87.2%; under setting [26], 84.1%; under setting [27], 57%; under setting [28], 68.9%; under setting [29], 63.9%. In addition, the viability, T/C reads like this: under setting [30], 5.73%; under setting [31], 5.87%; under setting [32], 2.84%; under setting [33], 1.09%; under setting [34], 3.05%; under setting [35], 4.37%.
With `COc1cccc2c1C(=O)c1c(O)c3c(c(O)c1C2=O)CC(O)(C(=O)CO)CC3OC1CC(N)C(O)C(C)O1` (stereo not drawn), the viability, T/C was 19% and 41.1% and 29.2% (compound 0.0316 µM); 13.1% and 28.8% and 16.9% (compound 0.1 µM); 3.14% and 7.44% and 4.25% (compound 0.316 µM); 0.97% and 2.58% and 1.55% (compound 1 µM); 1.22% and 1.89% and 0.79% (compound 3.16 µM); 1.82% and 4.62% and 3.32% (compound 10 µM). Moreover, the IC50 (curve of compound) is below 31.6 nM.
Turning to `CC1COCCN1c1cc(-c2ccnn2C)c2ccnc(-c3ccn[nH]3)c2n1` (stereo not drawn), the viability, T/C by setting is: (compound 0.00316 µM) 99.8% and 104% and 109%; (compound 0.01 µM) 100% and 108% and 107%; (compound 0.0316 µM) 106% and 101% and 96.2%; (compound 0.1 µM) 98.3% and 103% and 91.9%; (compound 0.316 µM) 36.1% and 71.9% and 59.7%; (compound 1 µM) 12.2% and 25.8% and 17.1%. Moreover, the IC50 (curve of compound) was 244 nM and 546 nM and 421 nM.
In the case of `COc1ccc([C@@H](O)c2cc(-c3ncnc4cc(N5CCOCC5)ccc34)c(F)cc2Cl)nn1`, the viability, T/C reads like this: (compound 0.0316 µM) 115% and 108% (2×); (compound 0.1 µM) 97.6% and 101% and 89.4%; (compound 0.316 µM) 102% and 105% and 88.9%; (compound 1 µM) 89.7% and 98.2% and 82%; (compound 3.16 µM) 79% and 89.1% and 76.9%; (compound 10 µM) 52.3% and 71.5% and 57.8%. For the same compound, the half-maximal inhibitory concentration (IC50) (curve of compound) was above 10000 nM.
Turning to `Nc1ncn(C2CC(O)C(CO)S2)c(=O)n1` (stereo not drawn), the viability, T/C is 108% and 96.3% and 97.9% (compound 0.000949 µM); 93.2% and 97.4% and 100% (compound 0.003 µM); 95.8% and 97.7% and 113% (compound 0.00949 µM); 82.9% and 103% and 95.7% (compound 0.03 µM); 86.4% and 98.1% and 91.1% (compound 0.0949 µM); 81.6% and 99.8% and 82.1% (compound 0.3 µM). Besides, where the note is “curve of compound”, the IC50 was above 300 nM.
